Calls of active or inactive are those of the source. The calls are words filed in the database; no cut-off is given here.
Assays:
RAW264.7 [1] = assay: Antiinflammatory activity in mouse RAW264.7 cells assessed as inhibition of LPS-induced nitric oxide production after 24 hrs by Griess method; format: functional, cell-based; details: RAW264.7, 24 h
RAW264.7 [2] = assay: Cytotoxicity against mouse RAW264.7 cells assessed as reduction in cell viability by MTT assay; format: cell-based
THP-1 [3] = assay: Antiinflammatory activity in human THP1 cells assessed as inhibition of LPS-induced IL-alpha mRNA level preincubated for 1 hr followed by LPS stimulation measured after 12 hrs by qPCR method; format: functional, cell-based
THP-1 [4] = assay: Antiinflammatory activity in human THP1 cells assessed as inhibition of LPS-induced IL-beta mRNA level preincubated for 1 hr followed by LPS stimulation measured after 12 hrs by qPCR method; format: functional, cell-based
THP-1 [5] = assay: Antiinflammatory activity in human THP1 cells assessed as inhibition of LPS-induced IL-6 mRNA level preincubated for 1 hr followed by LPS stimulation measured after 12 hrs by qPCR method; format: functional, cell-based
THP-1 [6] = assay: Antiinflammatory activity in human THP1 cells assessed as inhibition of LPS-induced TNF-alpha mRNA level preincubated for 1 hr followed by LPS stimulation measured after 12 hrs by qPCR method; format: functional, cell-based
THP-1 [7] = assay: Antiinflammatory activity in human THP1 cells assessed as inhibition of LPS-induced […] mRNA level at 50 to 100 uM preincubated for 1 hr followed by LPS stimulation measured after 12 hrs by qPCR method; format: functional, cell-based
THP-1 [8] = assay: Antiinflammatory activity in human THP1 cells assessed as inhibition of LPS-induced COX-2 protein level at 50 to 100 uM preincubated for 1 hr followed by LPS stimulation measured after 12 hrs by Western blot method; format: functional, cell-based
[9] = molecular target: Transcription factor p65 (Homo sapiens) (UniProt Q04206); assay: Inhibition of LPS-induced NFkB p65 phosphorylation in cytoplasm of human THP1 cells preincubated for 1 hr followed by LPS stimulation measured after 12 hrs by Western blot method
Chain of Transcription factor p65 (Homo sapiens) (Q04206 whole entry, the tested form may be a part): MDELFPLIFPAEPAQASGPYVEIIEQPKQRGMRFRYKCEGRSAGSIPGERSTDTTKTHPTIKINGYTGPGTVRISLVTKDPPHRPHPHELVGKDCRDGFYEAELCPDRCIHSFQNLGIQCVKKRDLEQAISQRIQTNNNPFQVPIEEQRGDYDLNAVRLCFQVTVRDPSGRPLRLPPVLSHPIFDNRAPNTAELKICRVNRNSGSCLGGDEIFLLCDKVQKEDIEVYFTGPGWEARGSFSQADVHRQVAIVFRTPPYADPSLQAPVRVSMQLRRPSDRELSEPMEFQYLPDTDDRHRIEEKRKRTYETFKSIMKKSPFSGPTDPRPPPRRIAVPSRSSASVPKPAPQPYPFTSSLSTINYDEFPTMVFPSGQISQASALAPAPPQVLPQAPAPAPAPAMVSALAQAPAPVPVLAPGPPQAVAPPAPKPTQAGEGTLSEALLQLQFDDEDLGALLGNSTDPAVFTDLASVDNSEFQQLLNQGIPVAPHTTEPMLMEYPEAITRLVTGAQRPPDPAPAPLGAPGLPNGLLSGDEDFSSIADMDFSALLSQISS

[10] = molecular target: Transcription factor p65 (Homo sapiens) (UniProt Q04206); assay: Inhibition of LPS-induced NFkB p65 nuclear translocation in human THP1 cells preincubated for 1 hr followed by LPS stimulation measured after 12 hrs by Western blot method; format: cell-based
THP-1 [11] = assay: Inhibition of LPS-induced STAT1 nuclear translocation in human THP1 cells at 50 to 100 uM preincubated for 1 hr followed by LPS stimulation measured after 12 hrs by Western blot method; format: functional, cell-based
THP-1 [12] = assay: Inhibition of LPS-induced STAT3 nuclear translocation in human THP1 cells at 50 to 100 uM preincubated for 1 hr followed by LPS stimulation measured after 12 hrs by Western blot method; format: functional, cell-based
THP-1 [13] = assay: Inhibition of LPS-induced TFEB nuclear translocation in human THP1 cells at 50 to 100 uM preincubated for 1 hr followed by LPS stimulation measured after 12 hrs by Western blot method; format: functional, cell-based
[14] = molecular target: T1, Transcription factor E3 (Homo sapiens) (UniProt P19532); assay: Inhibition of LPS-induced TFE3 nuclear translocation in human THP1 cells at 50 to 100 uM preincubated for 1 hr followed by LPS stimulation measured after 12 hrs by Western blot method; format: cell-based
T1 sequence (whole entry): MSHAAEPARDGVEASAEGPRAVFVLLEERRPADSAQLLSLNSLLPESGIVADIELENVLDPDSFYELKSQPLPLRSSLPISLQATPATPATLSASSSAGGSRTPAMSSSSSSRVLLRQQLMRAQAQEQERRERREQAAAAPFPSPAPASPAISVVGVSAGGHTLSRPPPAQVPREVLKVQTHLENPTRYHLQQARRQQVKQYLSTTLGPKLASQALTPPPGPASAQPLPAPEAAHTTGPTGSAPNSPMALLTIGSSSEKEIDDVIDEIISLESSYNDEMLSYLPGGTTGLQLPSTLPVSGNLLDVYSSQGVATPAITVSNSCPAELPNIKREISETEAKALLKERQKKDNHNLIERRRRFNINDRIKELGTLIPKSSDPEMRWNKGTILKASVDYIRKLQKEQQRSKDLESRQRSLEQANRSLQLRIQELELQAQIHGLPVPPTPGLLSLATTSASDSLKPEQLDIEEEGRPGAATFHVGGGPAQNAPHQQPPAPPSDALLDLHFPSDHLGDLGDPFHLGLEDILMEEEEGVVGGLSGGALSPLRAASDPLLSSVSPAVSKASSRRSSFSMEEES

[15] = molecular target: T1, Transcription factor E3 (Homo sapiens); assay: Inhibition of GFP-fused TFE3 (unknown origin) expressed in HEK293T cells assessed as reduction in LPS-induced TFE3 nuclear translocation at 100 uM preincubated for 1 hr followed by LPS stimulation measured after 12 hrs by DAPI staining based confocal microscopic method; format: cell-based
[16] = molecular target: Transcription factor p65 (Homo sapiens) (UniProt Q04206); assay: Inhibition of GFP-fused NFkB p65 (unknown origin) expressed in HEK293T cells assessed as reduction in LPS-induced p65 nuclear translocation at 100 uM preincubated for 1 hr followed by LPS stimulation measured after 12 hrs by DAPI staining based confocal microscopic method; format: cell-based
THP-1 [17] = assay: Antiinflammatory activity in human THP1 cells assessed as inhibition of LPS-induced […] mRNA level at 12 to 25 uM preincubated for 1 hr followed by LPS stimulation measured after 12 hrs by qPCR method; format: functional, cell-based
[18] = molecular target: T1, Transcription factor E3 (Homo sapiens); assay: Inhibition of LPS-induced TFE3 nuclear translocation in human THP1 cells at 12 to 25 uM preincubated for 1 hr followed by LPS stimulation measured after 12 hrs by Western blot method; format: cell-based

`CC1=C(C)C(=O)C(CC[C@@](C)(O)CCC[C@@H](C)CCC[C@@H](C)CCCC(C)C)=C(C)C1=O` showed an IC50 (RAW264.7 [1]) of over 100 µM and an IC50 (RAW264.7 [2]) of over 100 µM.
`C/C1=C/C(=O)C/C(C)=C/C[C@]2(C)CC[C@](O)(C(C)C)[C@H]2CC1` was tested, and the IC50 (RAW264.7 [1]) was 34.9 µM, the inhibition (THP-1 [3]) was “Dose-dependent effect” and the inhibition (THP-1 [4]) was “Dose-dependent effect”. The inhibition (THP-1 [5]) was “Dose-dependent effect”, the inhibition (THP-1 [6]) was “Dose-dependent effect” and the inhibition (THP-1 [7]) was “Active”. The inhibition (THP-1 [8]) was “Active”, the inhibition [9] was “Dose-dependent effect” and the inhibition [10] was “Dose-dependent effect”. For the same molecule, the inhibition (THP-1 [11]) was “inactive”, the inhibition (THP-1 [12]) was “inactive” and the inhibition (THP-1 [13]) was “inactive”. The inhibition [14] was “Active”, the inhibition [15] was “Active” and the inhibition [16] was “Active”. It also gave an IC50 (RAW264.7 [2]) of over 100 µM.
With `O=c1cc(-c2ccc(O)c(O)c2)oc2cc(O)cc(O)c12` [LUTEOLIN] the IC50 (RAW264.7 [1]) was 14.4 µM, the inhibition (THP-1 [17]) was “Active” and the inhibition [18] was “Active”. The IC50 (RAW264.7 [2]) was over 50 µM.

From ChEMBL document CHEMBL4219226, “Terpenoids isolated from Chinese liverworts Lepidozia reptans and their anti-inflammatory activity” (Bioorg Med Chem, 2018)
